Patent US8952024B2, “Herbicidal pyrimidone derivatives” (E I du Pont de Nemours and Company, priority 2009, dated 2015)

Tests used:
Format in all cases: in vivo
[1] = system: windgrass (Apera spica-venti); experiment: Test B postemergence plant response
Summary of the method: (§1)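 Plants grown in peat/vermiculite medium were sprayed postemergence at 2–18 cm height (1- to 4-leaf stage). After 13–15 days in the greenhouse, response was rated visually against untreated controls on a 0–100 scale (0 no effect, 100 complete control).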

[2] = system: canarygrass (Phalaris minor); experiment: Test B postemergence plant response
Summary of the method: as §1

[3] = system: chickweed (Stellaria media); experiment: Test B postemergence plant response
Summary of the method: as §1

[4] = system: pigweed (Amaranthus retroflexus); experiment: Test A pre-/postemergence plant response
Summary of the method: (§2)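 Approximately ten days after concurrent pre- and postemergence spraying in a greenhouse, plants were compared with untreated controls and rated visually for injury, 0 = no effect to 100 = complete control. Preemergence spray was directed onto loam/sand soil; postemergence targeted 1–2 leaf seedlings.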

[5] = system: morningglory (Ipomoea spp.); experiment: Test A pre-/postemergence plant response
Summary of the method: as §2

[6] = system: velvetleaf (Abutilon theophrasti); experiment: Test A pre-/postemergence plant response
Summary of the method: as §2

[7] = system: wheat (Triticum aestivum); experiment: Test A pre-/postemergence plant response
Summary of the method: as §2

corn (Zea mays) = experiment: Test A pre-/postemergence plant response
Summary of the method: as §2

[8] = system: large crabgrass (Digitaria sanguinalis); experiment: Test A pre-/postemergence plant response
Summary of the method: as §2

[9] = system: giant foxtail (Setaria faberii); experiment: Test A pre-/postemergence plant response
Summary of the method: as §2

[10] = system: barnyardgrass (Echinochloa crus-galli); experiment: Test A pre-/postemergence plant response
Summary of the method: as §2

[11] = system: ducksalad (Heteranthera limosa); experiment: Test B flooded paddy test
Summary of the method: (§3)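 Rice, umbrella sedge, ducksalad and barnyardgrass were grown to the 2-leaf stage, flooded to 3 cm, and compound was applied directly to the paddy water, with that depth kept throughout. After 13 to 15 days in the greenhouse, plants were visually rated against controls on a 0 (no effect) to 100 (complete control) scale.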

rice (Oryza sativa) = experiment: Test B flooded paddy test
Summary of the method: as §3

[12] = 62 g ai/ha, postemergence, 0 is no effect, 100 is complete control, 13 to 15 days
[13] = Postemergence, 125 g ai/ha, scale 0 to 100 (0 no effect, 100 complete control)
[14] = 31 g ai/ha, postemergence, scale 0 to 100, 0 is no effect, 100 is complete control
[15] = Postemergence, 250 g ai/ha, scale 0 to 100 (0 no effect, 100 complete control)
[16] = Postemergence, 125 g ai/ha, 0 to 100 scale where 0 is no effect and 100 is complete control
[17] = Postemergence, 500 g ai/ha, 0 to 100 scale, 0 = no effect, 100 = complete control, approx. ten days
[18] = Preemergence, 125 g ai/ha, 0 to 100 scale, 0 = no effect, 100 = complete control
[19] = Preemergence, 500 g ai/ha, visual injury, 0 to 100 scale (0 no effect, 100 complete control), approx. ten days
[20] = 250 g ai/ha, flooded paddy test, visual rating on 0 to 100 scale (0 no effect, 100 complete control) after 13 to 15 days
[21] = Flood (flooded paddy test), 62 g ai/ha, scale of 0 to 100 where 0 is no effect and 100 is complete control, 13 to 15 days

## COCCn1c(-c2cc(F)cc(F)c2)ncc(C(=O)C2=C(O)CCCC2=O)c1=O [Compound 119]
[1]; [12]
  Windgrass plant response rating (0 to 100 scale): 85
[1]; [13]
  Plant response rating, Windgrass: 100
[2]; [14]
  Plant response rating, Canarygrass: 5
[2]; [12]
  Canarygrass plant response rating (0 to 100 scale): 5
[2]; [13]
  Plant response rating, Canarygrass: 30
[2]; [15]
  Plant response rating, Canarygrass: 30
[3]; [14]
  Plant response rating, Chickweed: 70
[3]; [12]
  Chickweed plant response rating (0 to 100 scale): 80
[3]; [13]
  Plant response rating, Chickweed: 100
[3]; [15]
  Plant response rating, Chickweed: 100
[4]; [16]
  Plant response rating, Pigweed: 100
[4]; [17]
  Plant response rating, Pigweed: 100
[4]; [18]
  Plant response rating, Pigweed: 100
[4]; [19]
  Plant response rating, Pigweed: 100
[5]; [16]
  Plant response rating, Morningglory: 90
[5]; [17]
  Plant response rating, Morningglory: 100
[5]; [18]
  Plant response rating, Morningglory: 60
[5]; [19]
  Plant response rating, Morningglory: 90
[6]; [16]
  Plant response rating, Velvetleaf: 100
[6]; [17]
  Plant response rating, Velvetleaf: 100
[6]; [18]
  Plant response rating, Velvetleaf: 90
[6]; [19]
  Plant response rating, Velvetleaf: 100
[7]; [16]
  Plant response rating, Wheat: 50
[7]; [17]
  Plant response rating, Wheat: 60
[7]; [18]
  Plant response rating, Wheat: 20
[7]; [19]
  Plant response rating, Wheat: 60
Corn (Zea mays); [16]
  Plant response rating, Corn: 0
Corn (Zea mays); [17]
  Plant response rating, Corn: 70
Corn (Zea mays); [18]
  Plant response rating, Corn: 20
Corn (Zea mays); [19]
  Plant response rating, Corn: 30
[8]; [16]
  Plant response rating, Crabgrass, Large: 80
[8]; [17]
  Plant response rating, Crabgrass, Large: 90
[8]; [18]
  Plant response rating, Crabgrass, Large: 100
[8]; [19]
  Plant response rating, Crabgrass, Large: 100
[9]; [16]
  Plant response rating, Foxtail, Giant: 70
[9]; [17]
  Plant response rating, Foxtail, Giant: 90
[9]; [18]
  Plant response rating, Foxtail, Giant: 90
[9]; [19]
  Plant response rating, Foxtail, Giant: 100
[10]; [16]
  Plant response rating, Barnyardgrass: 80
[10]; [17]
  Plant response rating, Barnyardgrass: 90
[10]; [18]
  Plant response rating, Barnyardgrass: 70
[10]; [19]
  Plant response rating, Barnyardgrass: 100
[11]; [20]
  Plant response rating, Flood, Ducksalad: 70
[11]; [21]
  Plant response rating, Ducksalad: 30
Rice (Oryza sativa); [20]
  Plant response rating, Flood, Rice: 35
Rice (Oryza sativa); [21]
  Plant response rating, Rice: 20
